Results: ChEMBL document CHEMBL4138123, “Design, synthesis and biological evaluation of novel pyrazolochalcones as potential modulators of PI3K/Akt/mTOR pathway and inducers of apoptosis in breast cancer cells” (Eur J Med Chem, 2017)

What was measured:
Format in all cases: functional
[1] = tested on: HOP-62; assay: Cytotoxicity against human HOP62 cells assessed as cell growth at 1 uM after 48 hrs by sulforhodamine B assay relative to control; conditions: HOP-62, 48 h, read-out: Activity
[2] = tested on: 786-0; assay: Cytotoxicity against human 786-0 cells assessed as cell growth at 10 uM after 48 hrs by sulforhodamine B assay relative to control; conditions: 786-0, 48 h, read-out: Activity
[3] = tested on: SK-MEL-28; assay: Cytotoxicity against human SK-MEL-28 cells assessed as cell growth at 10 uM after 48 hrs by sulforhodamine B assay relative to control; conditions: SK-MEL-28, 48 h, read-out: Activity
[4] = tested on: Hs-578T; assay: Cytotoxicity against human Hs 578T cells assessed as cell growth at 0.1 uM after 48 hrs by sulforhodamine B assay relative to control; conditions: read-out: Activity
[5] = tested on: DU-145; assay: Cytotoxicity against human DU145 cells assessed as cell growth at 1 uM after 48 hrs by sulforhodamine B assay relative to control; conditions: DU-145, 48 h, read-out: Activity
[6] = tested on: A498; assay: Cytotoxicity against human A498 cells assessed as cell growth at 1 uM after 48 hrs by sulforhodamine B assay relative to control; conditions: A498, 48 h, read-out: Activity
[7] = tested on: SF-268; assay: Cytotoxicity against human SF268 cells assessed as growth inhibition after 48 hrs by sulforhodamine B assay; conditions: SF-268, 48 h; for CC50: read-out: LC50 (the source's name)
[8] = tested on: MDA-MB-468; assay: Cytotoxicity against human MDA-MB-468 cells assessed as cell growth at 100 uM after 48 hrs by sulforhodamine B assay relative to control; conditions: MDA-MB-468, 48 h, read-out: Activity
[9] = tested on: TK-10; assay: Cytotoxicity against human TK10 cells assessed as cell growth at 1 uM after 48 hrs by sulforhodamine B assay relative to control; conditions: TK-10, 48 h, read-out: Activity
[10] = tested on: Hs-578T; assay: Cytotoxicity against human Hs 578T cells assessed as cell growth at 100 uM after 48 hrs by sulforhodamine B assay relative to control; conditions: read-out: Activity
[11] = tested on: MCF7; assay: Cytotoxicity against human MCF7 cells assessed as cell growth at 1 uM after 48 hrs by sulforhodamine B assay relative to control; conditions: MCF7, 48 h, read-out: Activity
[12] = tested on: DU-145; assay: Cytotoxicity against human DU145 cells assessed as growth inhibition after 48 hrs by sulforhodamine B assay; conditions: DU-145, 48 h; for CC50: read-out: LC50 (the source's name)
[13] = tested on: HCT-116; assay: Cytotoxicity against human HCT116 cells assessed as growth inhibition after 48 hrs by sulforhodamine B assay; conditions: HCT-116, 48 h
[14] = tested on: MDA-MB-231; assay: Cytotoxicity against human MDA-MB-231 cells assessed as cell growth at 0.1 uM after 48 hrs by sulforhodamine B assay relative to control; conditions: MDA-MB-231, 48 h, read-out: Activity
[15] = tested on: OVCAR-4; assay: Cytotoxicity against human OVCAR4 cells assessed as growth inhibition after 48 hrs by sulforhodamine B assay; conditions: OVCAR-4, 48 h
[16] = tested on: UACC-62; assay: Cytotoxicity against human UACC62 cells assessed as cell growth at 1 uM after 48 hrs by sulforhodamine B assay relative to control; conditions: UACC-62, 48 h, read-out: Activity
[17] = tested on: NCI-H23; assay: Cytotoxicity against human NCI-H23 cells assessed as cell growth at 0.01 uM after 48 hrs by sulforhodamine B assay relative to control; conditions: NCI-H23, 48 h, read-out: Activity
[18] = tested on: HCT-116; assay: Cytotoxicity against human HCT116 cells assessed as cell growth at 0.1 uM after 48 hrs by sulforhodamine B assay relative to control; conditions: HCT-116, 48 h, read-out: Activity
[19] = tested on: NCI-H522; assay: Cytotoxicity against human NCI-H522 cells assessed as growth inhibition after 48 hrs by sulforhodamine B assay; conditions: NCI-H522, 48 h
[20] = tested on: SK-OV-3; assay: Cytotoxicity against human SKOV3 cells assessed as cell growth at 0.1 uM after 48 hrs by sulforhodamine B assay relative to control; conditions: SK-OV-3, 48 h, read-out: Activity
[21] = tested on: NCI-H226; assay: Cytotoxicity against human NCI-H226 cells assessed as growth inhibition after 48 hrs by sulforhodamine B assay; conditions: NCI-H226, 48 h
[22] = tested on: A549; assay: Cytotoxicity against human A549/ATCC cells assessed as growth inhibition after 48 hrs by sulforhodamine B assay; conditions: A549, 48 h
[23] = tested on: HCT-15; assay: Cytotoxicity against human HCT15 cells assessed as growth inhibition after 48 hrs by sulforhodamine B assay; conditions: HCT-15, 48 h
[24] = tested on: KM12; assay: Cytotoxicity against human KM12 cells assessed as cell growth at 10 uM after 48 hrs by sulforhodamine B assay relative to control; conditions: KM12, 48 h, read-out: Activity
[25] = tested on: HCT-15; assay: Cytotoxicity against human HCT15 cells assessed as cell growth at 0.01 uM after 48 hrs by sulforhodamine B assay relative to control; conditions: HCT-15, 48 h, read-out: Activity
[26] = tested on: SW-620; assay: Cytotoxicity against human SW620 cells assessed as growth inhibition after 48 hrs by sulforhodamine B assay; conditions: SW-620, 48 h
[27] = tested on: NCI-H460; assay: Cytotoxicity against human NCI-H460 cells assessed as cell growth at 1 uM after 48 hrs by sulforhodamine B assay relative to control; conditions: NCI-H460, 48 h, read-out: Activity
[28] = tested on: DU-145; assay: Cytotoxicity against human DU145 cells assessed as cell growth at 10 uM after 48 hrs by sulforhodamine B assay relative to control; conditions: DU-145, 48 h, read-out: Activity
[29] = tested on: SR; assay: Cytotoxicity against human SR cells assessed as cell growth at 10 uM after 48 hrs by sulforhodamine B assay relative to control; conditions: read-out: Activity
[30] = tested on: SNB-19; assay: Cytotoxicity against human SNB19 cells assessed as cell growth at 100 uM after 48 hrs by sulforhodamine B assay relative to control; conditions: SNB-19, 48 h, read-out: Activity
[31] = tested on: NCI/ADR-RES; assay: Cytotoxicity against human NCI/ADR-RES cells assessed as cell growth at 0.1 uM after 48 hrs by sulforhodamine B assay relative to control; conditions: read-out: Activity
[32] = tested on: TK-10; assay: Cytotoxicity against human TK10 cells assessed as growth inhibition after 48 hrs by sulforhodamine B assay; conditions: TK-10, 48 h
[33] = tested on: SNB-19; assay: Cytotoxicity against human SNB19 cells assessed as cell growth at 0.1 uM after 48 hrs by sulforhodamine B assay relative to control; conditions: SNB-19, 48 h, read-out: Activity
[34] = tested on: NCI/ADR-RES; assay: Cytotoxicity against human NCI/ADR-RES cells assessed as cell growth at 100 uM after 48 hrs by sulforhodamine B assay relative to control; conditions: read-out: Activity
[35] = tested on: CCRF-CEM; assay: Cytotoxicity against human CCRF-CEM cells assessed as growth inhibition after 48 hrs by sulforhodamine B assay

SMILES: COc1ccc(-c2cc(/C=C/C(=O)c3cc(OC)c(OC)c(OC)c3)[nH]n2)cc1OC
- growth at 1 µM [1]: 71%
- growth at 10 µM [2]: -94%
- growth at 10 µM [3]: -49%
- growth at 0.1 µM [4]: 97%
- growth at 1 µM [5]: 87%
- growth at 1 µM [6]: 65%
- GI50 [7]: 1.68 µM
- TGI [7]: 3.9 µM
- CC50 [7]: 9.03 µM
- growth at 100 µM [8]: -58%
- growth at 1 µM [9]: 96%
- growth at 100 µM [10]: -16%
- growth at 1 µM [11]: 53%
- GI50 [12]: 1.83 µM
- TGI [12]: 4.12 µM
- CC50 [12]: 9.28 µM
- GI50 [13]: 0.42 µM
- LC50 [13]: 5.18 µM
- TGI [13]: 1.79 µM
- growth at 0.1 µM [14]: 93%
- GI50 [15]: 1.62 µM
- TGI [15]: 7.17 µM
- growth at 1 µM [16]: 88%
- growth at 0.01 µM [17]: 94%
- growth at 0.1 µM [18]: 88%
- GI50 [19]: 1.33 µM
- LC50 [19]: 5.39 µM
- TGI [19]: 2.68 µM
- growth at 0.1 µM [20]: 87%
- GI50 [21]: 1.93 µM
- LC50 (concentration killing 50% of cells) [21]: > 100 µM
- TGI [21]: 7.91 µM
- GI50 [22]: 2.39 µM
- LC50 (concentration giving 50% net cell kill) [22]: 62.4 µM
- TGI [22]: 9.34 µM
- GI50 [23]: 1.19 µM
- LC50 [23]: > 100 µM
- TGI [23]: 3.85 µM
- growth at 10 µM [24]: -81%
- growth at 0.01 µM [25]: 99%
- GI50 [26]: 1.5 µM
- LC50 (lethal concentration, 50% net cell kill) [26]: > 100 µM
- TGI [26]: 4.16 µM
- growth at 1 µM [27]: 52%
- growth at 10 µM [28]: -55%
- growth at 10 µM [29]: -10%
- growth at 100 µM [30]: -77%
- growth at 0.1 µM [31]: 97%
- GI50 [32]: 3.27 µM
- LC50 [32]: 36.9 µM
- TGI [32]: 11.8 µM
- growth at 0.1 µM [33]: 92%
- growth at 100 µM [34]: -7%
- GI50 [35]: 0.34 µM
- LC50 (concentration killing 50% of cells) [35]: > 100 µM
- TGI [35]: 3.13 µM

SMILES: COc1ccc(-c2cc(/C=C/C(=O)c3ccc(N)cc3)[nH]n2)cc1OC
- growth at 1 µM [1]: 92%
- growth at 10 µM [2]: -48%
- growth at 10 µM [3]: -29%
- growth at 0.1 µM [4]: 93%
- growth at 1 µM [5]: 97%
- growth at 1 µM [6]: 89%
- GI50 [7]: 1.89 µM
- TGI [7]: 4.4 µM
- CC50 [7]: 11.2 µM
- growth at 100 µM [8]: -73%
- growth at 1 µM [9]: 107%
- growth at 100 µM [10]: 4%
- growth at 1 µM [11]: 81%
- GI50 [12]: 3.74 µM
- TGI [12]: 13.5 µM
- CC50 [12]: 36.8 µM
- GI50 [13]: 1.71 µM
- LC50 [13]: 7.19 µM
- TGI [13]: 3.51 µM
- growth at 0.1 µM [14]: 107%
- GI50 [15]: 2.68 µM
- LC50 [15]: 40.5 µM
- TGI [15]: 15.8 µM
- growth at 1 µM [16]: 95%
- growth at 0.01 µM [17]: 103%
- growth at 0.1 µM [18]: 101%
- GI50 [19]: 1.65 µM
- LC50 [19]: 6.3 µM
- TGI [19]: 3.22 µM
- growth at 0.1 µM [20]: 102%
- GI50 [21]: 2.32 µM
- LC50 (concentration killing 50% of cells) [21]: 76.2 µM
- TGI [21]: 7.38 µM
- GI50 [22]: 2.75 µM
- LC50 (concentration giving 50% net cell kill) [22]: 45.2 µM
- TGI [22]: 10.1 µM
- GI50 [23]: 1.7 µM
- LC50 [23]: 33 µM
- TGI [23]: 5.37 µM
- growth at 10 µM [24]: -79%
- growth at 0.01 µM [25]: 93%
- GI50 [26]: 2.5 µM
- LC50 (lethal concentration, 50% net cell kill) [26]: 82.9 µM
- TGI [26]: 6.94 µM
- growth at 1 µM [27]: 94%
- growth at 10 µM [28]: 15%
- growth at 10 µM [29]: -13%
- growth at 100 µM [30]: -91%
- growth at 0.1 µM [31]: 104%
- GI50 [32]: 1.09 µM
- LC50 [32]: 48.7 µM
- TGI [32]: 23 µM
- growth at 0.1 µM [33]: 90%
- growth at 100 µM [34]: 2%
- GI50 [35]: 1.74 µM
- LC50 (concentration killing 50% of cells) [35]: > 100 µM
- TGI [35]: 7.81 µM
